Results taken from patent US9428514B2, “Bromodomain inhibitors” (AbbVie Inc., priority 2013, dated 2016).

System: breast cancer cell line MX-1
Test: MX-1 cell line proliferation assay (3-day, Cell Titer Glo)
Assay type: cell-based
Settings: Homo sapiens, MX1, MX-1 cells, 72 hours, read-out: Cellular proliferation: EC50
Description: The impact of compounds of the Examples on cancer cell proliferation was determined using the breast cancer cell line MX-1 (ATCC) in a 3-day proliferation assay. MX-1 cells were maintained in RPMI supplemented with 10% FBS at 37° C. and an atmosphere of 5% CO2. For compound testing, MX-1 cells were plated in 96-well black bottom plates at a density of 5000 cells/well in 90 μL of culture media and incubated at 37° overnight to allow cell adhesion and spreading. Compound dilution series were prepared in DMSO via a 3-fold serial dilution from 3 mM to […]. The DMSO dilution series were then diluted 1:100 in phosphate buffered saline, and 10 μL of the resulted solution were added to the appropriate wells of the MX-1 cell plate. The final compound concentrations in the wells were 3, 1, 0.3, 0.1, 0.03, 0.01, 0.003, 0.001, 0.0003, 0.0001, and 0.00003 μM.
Luminescence readings from the Cell Titer Glo assay were normalized to the DMSO treated cells and analyzed using the GraphPad Prism software with sigmoidal curve fitting to obtain EC50s. The minimum significant ratio (MSR) was determined to evaluate assay reproducibility (Eastwood et al., (2006) J Biomol Screen, 11: 253-261). The overall MSR was determined to be 2.1 and a moving MSR (last six run MSR overtime) has been <2. The EC50 values are reported in Table 1 for the indicated compounds.

| EC50 [nM] | SMILES |
| --- | --- |
| 114 | CCOc1cc(=O)n(C)cc1-c1cc(NC(=O)Cc2cc(F)ccc2Cl)ccc1Oc1ccc(F)cc1F [Example 1, 2-(2-chloro-5-fluorophenyl)-N-[4-(2,4-difluorophenoxy)-3-(4-ethoxy-1-methyl-6-oxo-1,6-dihydropyridin-3-yl)phenyl]acetamide] |
| 279 | CCOc1cc(=O)n(C)cc1-c1cc(NC(=O)Cc2ccc3c(c2)CCCO3)ccc1Oc1ccc(F)cc1F [Example 2, N-[4-(2,4-difluorophenoxy)-3-(4-ethoxy-1-methyl-6-oxo-1,6-dihydropyridin-3-yl)phenyl]-2-(3,4-dihydro-2H-chromen-6-yl)acetamide] |
| 356 | CCOc1cc(=O)n(C)cc1-c1cc(NC(=O)Cc2cc(C)n(C)n2)ccc1Oc1ccc(F)cc1F [Example 6, N-[4-(2,4-difluorophenoxy)-3-(4-ethoxy-1-methyl-6-oxo-1,6-dihydropyridin-3-yl)phenyl]-2-(1,5-dimethyl-1H-pyrazol-3-yl)acetamide] |
| > 3000 | CCOc1cc(=O)n(C)cc1-c1cc(NC(=O)Cn2ccc(-c3ccccc3F)n2)ccc1Oc1ccc(F)cc1F [Example 8, N-[4-(2,4-difluorophenoxy)-3-(4-ethoxy-1-methyl-6-oxo-1,6-dihydropyridin-3-yl)phenyl]-2-[3-(2-fluorophenyl)-1H-pyrazol-1-yl]acetamide] |
| 1890 | CCOc1cc(=O)n(C)cc1-c1cc(NCc2cn3c(n2)CCC3)ccc1Oc1ccc(F)cc1F [Example 10, 5-{2-(2,4-difluorophenoxy)-5-[(6,7-dihydro-5H-pyrrolo[1,2-a]imidazol-2-ylmethyl)amino]phenyl}-4-ethoxy-1-methylpyridin-2(1H)-one] |
| 884 | CCOc1cc(=O)n(C)cc1-c1cc(NCc2cccc(C)n2)ccc1Oc1ccc(F)cc1F [Example 11, 5-[2-(2,4-difluorophenoxy)-5-{[(6-methylpyridin-2-yl)methyl]amino}phenyl]-4-ethoxy-1-methylpyridin-2(1H)-one] |
| > 3000 | CCOc1cc(=O)n(C)cc1-c1cc(NC(=O)Nc2ccc(C)cc2C)ccc1Oc1ccc(F)cc1F [Example 16, 1-[4-(2,4-difluorophenoxy)-3-(4-ethoxy-1-methyl-6-oxo-1,6-dihydropyridin-3-yl)phenyl]-3-(2,4-dimethylphenyl)urea] |
| 832 | CCOc1cc(=O)n(C)cc1-c1cc(NCc2cncn2C)ccc1Oc1ccc(F)cc1F [Example 24, 5-[2-(2,4-difluorophenoxy)-5-{[(1-methyl-1H-imidazol-5-yl)methyl]amino}phenyl]-4-ethoxy-1-methylpyridin-2(1H)-one] |
| 1540 | CCOc1cc(=O)n(C)cc1-c1cc(NCc2ccn(CC)n2)ccc1Oc1ccc(F)cc1F [Example 25, 5-[2-(2,4-difluorophenoxy)-5-{[(1-ethyl-1H-pyrazol-3-yl)methyl]amino}phenyl]-4-ethoxy-1-methylpyridin-2(1H)-one] |
| > 3000 | CCOc1cc(=O)n(C)cc1-c1cc(NC(=O)CCOc2ccccc2)ccc1Oc1ccc(F)cc1F [Example 30, N-[4-(2,4-difluorophenoxy)-3-(4-ethoxy-1-methyl-6-oxo-1,6-dihydropyridin-3-yl)phenyl]-3-phenoxypropanamide] |
| 375 | CCOc1cc(=O)n(C)cc1-c1cc(NC(=O)COCc2ccccc2)ccc1Oc1ccc(F)cc1F [Example 35, 2-(benzyloxy)-N-[4-(2,4-difluorophenoxy)-3-(4-ethoxy-1-methyl-6-oxo-1,6-dihydropyridin-3-yl)phenyl]acetamide] |
| 779 | CCOc1cc(=O)n(C)cc1-c1cc(NC(=O)CCCc2ccccc2)ccc1Oc1ccc(F)cc1F [Example 38, N-[4-(2,4-difluorophenoxy)-3-(4-ethoxy-1-methyl-6-oxo-1,6-dihydropyridin-3-yl)phenyl]-4-phenylbutanamide] |

More lines, now with the values behind:

| SMILES | EC50 [nM] |
| --- | --- |
| CCOc1cc(=O)n(C)cc1-c1cc(NC(=O)Cc2ccc(Cl)cc2F)ccc1Oc1ccc(F)cc1F [Example 3, 2-(4-chloro-2-fluorophenyl)-N-[4-(2,4-difluorophenoxy)-3-(4-ethoxy-1-methyl-6-oxo-1,6-dihydropyridin-3-yl)phenyl]acetamide] | 433 |
| CCOc1cc(=O)n(C)cc1-c1cc(NC(=O)Cc2cnn(C)c2)ccc1Oc1ccc(F)cc1F [Example 4, N-[4-(2,4-difluorophenoxy)-3-(4-ethoxy-1-methyl-6-oxo-1,6-dihydropyridin-3-yl)phenyl]-2-(1-methyl-1H-pyrazol-4-yl)acetamide] | 425 |
| CCOc1cc(=O)n(C)cc1-c1cc(NC(=O)Cc2ccc(C)nc2)ccc1Oc1ccc(F)cc1F [Example 5, N-[4-(2,4-difluorophenoxy)-3-(4-ethoxy-1-methyl-6-oxo-1,6-dihydropyridin-3-yl)phenyl]-2-(6-methylpyridin-3-yl)acetamide] | 681 |
| CCOc1cc(=O)n(C)cc1-c1cc(NC(=O)Cc2cnc(C)s2)ccc1Oc1ccc(F)cc1F [Example 7, N-[4-(2,4-difluorophenoxy)-3-(4-ethoxy-1-methyl-6-oxo-1,6-dihydropyridin-3-yl)phenyl]-2-(2-methyl-1,3-thiazol-5-yl)acetamide] | 187 |
| CCOc1cc(=O)n(C)cc1-c1cc(NCCCn2cccn2)ccc1Oc1ccc(F)cc1F [Example 9, 5-[2-(2,4-difluorophenoxy)-5-{[3-(1H-pyrazol-1-yl)propyl]amino}phenyl]-4-ethoxy-1-methylpyridin-2(1H)-one] | 746 |
| CCOc1cc(=O)n(C)cc1-c1cc(NCc2ncccc2C)ccc1Oc1ccc(F)cc1F [Example 12, 5-[2-(2,4-difluorophenoxy)-5-{[(3-methylpyridin-2-yl)methyl]amino}phenyl]-4-ethoxy-1-methylpyridin-2(1H)-one] | 1020 |
| CCOc1cc(=O)n(C)cc1-c1cc(NCc2ccnn2C)ccc1Oc1ccc(F)cc1F [Example 13, 5-[2-(2,4-difluorophenoxy)-5-{[(1-methyl-1H-pyrazol-5-yl)methyl]amino}phenyl]-4-ethoxy-1-methylpyridin-2(1H)-one] | 1480 |
| CCOc1cc(=O)n(C)cc1-c1cc(NCCCC(=O)OC)ccc1Oc1ccc(F)cc1F [Example 14, methyl 4-{[4-(2,4-difluorophenoxy)-3-(4-ethoxy-1-methyl-6-oxo-1,6-dihydropyridin-3-yl)phenyl]amino}butanoate] | 111 |
| CCOc1cc(=O)n(C)cc1-c1cc(NC(=O)Nc2cc(C)ccc2C)ccc1Oc1ccc(F)cc1F [Example 19, 1-[4-(2,4-difluorophenoxy)-3-(4-ethoxy-1-methyl-6-oxo-1,6-dihydropyridin-3-yl)phenyl]-3-(2,5-dimethylphenyl)urea] | 557 |
| CCOc1cc(=O)n(C)cc1-c1cc(NCc2cnco2)ccc1Oc1ccc(F)cc1F [Example 23, 5-{2-(2,4-difluorophenoxy)-5-[(1,3-oxazol-5-ylmethyl)amino]phenyl}-4-ethoxy-1-methylpyridin-2(1H)-one] | > 3000 |
| CCOc1cc(=O)n(C)cc1-c1cc(NC(=O)CCS(=O)(=O)c2ccccc2)ccc1Oc1ccc(F)cc1F [Example 27, N-[4-(2,4-difluorophenoxy)-3-(4-ethoxy-1-methyl-6-oxo-1,6-dihydropyridin-3-yl)phenyl]-3-(phenylsulfonyl)propanamide] | 730 |
| CCOc1cc(=O)n(C)cc1-c1cc(NC(=O)Cc2cccc(Oc3ccccc3)c2)ccc1Oc1ccc(F)cc1F [Example 28, N-[4-(2,4-difluorophenoxy)-3-(4-ethoxy-1-methyl-6-oxo-1,6-dihydropyridin-3-yl)phenyl]-2-(3-phenoxyphenyl)acetamide] | 605 |
| CCOc1cc(=O)n(C)cc1-c1cc(NC(=O)Cc2ccc(S(C)(=O)=O)cc2)ccc1Oc1ccc(F)cc1F [Example 29, N-[4-(2,4-difluorophenoxy)-3-(4-ethoxy-1-methyl-6-oxo-1,6-dihydropyridin-3-yl)phenyl]-2-[4-(methylsulfonyl)phenyl]acetamide] | 433 |
| CCOc1cc(=O)n(C)cc1-c1cc(NC(=O)COc2ccc(C)cc2)ccc1Oc1ccc(F)cc1F [Example 33, N-[4-(2,4-difluorophenoxy)-3-(4-ethoxy-1-methyl-6-oxo-1,6-dihydropyridin-3-yl)phenyl]-2-(4-methylphenoxy)acetamide] | 464 |
| CCOc1cc(=O)n(C)cc1-c1cc(NC(=O)Cc2noc3ccccc23)ccc1Oc1ccc(F)cc1F [Example 36, 2-(1,2-benzoxazol-3-yl)-N-[4-(2,4-difluorophenoxy)-3-(4-ethoxy-1-methyl-6-oxo-1,6-dihydropyridin-3-yl)phenyl]acetamide] | 476 |
| CCOc1cc(=O)n(C)cc1-c1cc(NC(=O)Cc2ccc(Oc3ccccc3)cc2)ccc1Oc1ccc(F)cc1F [Example 37, N-[4-(2,4-difluorophenoxy)-3-(4-ethoxy-1-methyl-6-oxo-1,6-dihydropyridin-3-yl)phenyl]-2-(4-phenoxyphenyl)acetamide] | 1440 |
| CCOc1cc(=O)n(C)cc1-c1cc(NC(=O)Cc2ccc3ccccc3c2)ccc1Oc1ccc(F)cc1F [Example 39, N-[4-(2,4-difluorophenoxy)-3-(4-ethoxy-1-methyl-6-oxo-1,6-dihydropyridin-3-yl)phenyl]-2-(naphthalen-2-yl)acetamide] | 595 |
| CCOc1cc(=O)n(C)cc1-c1cc(NC(=O)CCc2ccccc2)ccc1Oc1ccc(F)cc1F [Example 41, N-[4-(2,4-difluorophenoxy)-3-(4-ethoxy-1-methyl-6-oxo-1,6-dihydropyridin-3-yl)phenyl]-3-phenylpropanamide] | 398 |
